Source: PMC11966596, “Perturbation-Modulated Native Mass Spectrometry Excludes a Nonspecific Drug Target Protein Binder Based on Conformation Stability Change” (Analytical Chemistry, 2025)

What was measured:
lysozyme = target: T1, lysozyme (Gallus gallus, UniProt P00698); test: native OPP-ESI-MS, charge state distribution; type: binding; conditions: 100 μM protein, 1 mM ligand; 25 mM ammonium acetate; OPP solvent 10 mM NH4Ac
T1 construct: gene LYZ

[1] = target: DHFR (recombinant human DHFR) (Homo sapiens, UniProt P00374); conditions: 5 μM his-tagged protein; 100 mM ammonium acetate; co-purified NADPH present
Sequence of DHFR (recombinant human DHFR) (P00374 whole entry): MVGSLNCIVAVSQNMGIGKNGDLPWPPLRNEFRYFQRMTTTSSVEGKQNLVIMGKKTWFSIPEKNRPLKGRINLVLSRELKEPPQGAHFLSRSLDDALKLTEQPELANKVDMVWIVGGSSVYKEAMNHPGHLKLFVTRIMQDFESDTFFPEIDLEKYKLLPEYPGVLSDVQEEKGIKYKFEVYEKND

T1 sequence (P00698 19-147): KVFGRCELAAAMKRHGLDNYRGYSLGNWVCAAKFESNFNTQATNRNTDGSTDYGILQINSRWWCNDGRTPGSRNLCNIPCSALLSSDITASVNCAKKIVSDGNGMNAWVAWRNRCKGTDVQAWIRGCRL

Row | R (bound/unbound protein ratio) (lysozyme) | SMILES | % binding at 100 μM [1]
1 | 0.59 | CC(=O)N[C@H]1[C@H](O[C@H]2[C@H](O)[C@@H](NC(C)=O)C(O)O[C@@H]2CO)O[C@H](CO)[C@@H](O[C@@H]2O[C@H](CO)[C@@H](O)[C@H](O)[C@H]2NC(C)=O)[C@@H]1O (some centres unmarked) [NTAC] | –
2 | – | Nc1nc(N)c2nc(CNc3ccc(C(=O)N[C@@H](CCC(=O)O)C(=O)O)cc3)cnc2n1 [aminopterin] | 100%
